# What was measured:
# 4G4 mAb = test: Cross-reactivity of the 4G4 mAb (50% displacement of bound MBG); assay type: binding, mouse; conditions: amount of MBG for 50% displacement versus amount of cross-reactant
# From the text: (§1) The percent cross-reactivity of the 3E9, 4G4 and 4H2 mAbs was defined as the ratio of the amount of MBG required to displace 50% of maximally bound MBG from the particular anti-MBG mAb, versus the amount of the cross-reactant to give the same 50% displacement. The binding specificities of the 3E9 mAb for a panel of steroids are shown in Table I; those for the 4112 and 4G4 mAbs are shown in Table II.
# 4H2 mAb = test: Cross-reactivity of the 4H2 mAb (50% displacement of bound MBG); assay type: binding, mouse; conditions: amount of MBG for 50% displacement versus amount of cross-reactant
# From the text: as §1
# 3E9 mAb = test: Cross-reactivity of the 3E9 mAb (50% displacement of bound MBG); assay type: binding, mouse; conditions: amount of MBG for 50% displacement versus amount of cross-reactant
# From the text: as §1
# [1] = system: polyclonal antidigoxin rabbit antibody; test: DELFIA immunoassay, displacement of digoxin standards; assay type: binding; conditions: equimolar concentrations of MBG and its conjugate
# From the text: Prior to immunization, the conjugate MBG-glycoside-BSA was compared with MBG for its ability to react with polyclonal antidigoxin rabbit antibody, using a DELFIA immunoassay.
# [2] = Experimental uremic cardiomyopathy: partial nephrectomy, MBG infusion, immunization against MBG-BSA; conditions: male, Sprague-Dawley, rat, plasma, other: infusion with an osmotic minipump, 10 μg/kg per day
# Protocol: (§2) Male, Sprague-Dawley were use in this study. Rats subjected to sham surgery and no MBG infusion or partial nephrectomy were referred to as Sham (n=18). […] MBG-infused rats were referred to as MBG (n=20). Rats immunized against MBG-BSA conjugate before partial nephrectomy were referred to as PNx-IM (n=18).
# (§3) MBG was isolated from toad (Bufo Marinus) venom. […] MBG was infused for a period of 4 weeks at 10 μg/kg per day with an osmotic minipump (Alzet Model 2004, Durect Corp).
# (§4) Partial nephrectomy (five-sixth nephrectomy) was induced by removal of the right kidney and selective infarction of two-thirds of the left kidney with silk ligatures.
# (§5) Rats were immunized with an MBG-BSA conjugate and subjected to partial nephrectomy. The immunization schedule was 3 weekly injections (250 μg/kg per week SQ) in complete Freund's adjuvant before the partial nephrectomy with a last boost at the time of surgery.
# (§6) BP was measured once a week by the tail-cuff method in conscious, restrained rats with equipment made by IITC, Inc (Amplifier model 229, Monitor model 31, Test chamber Model 306; IITC Life Science). Before sacrifice at 4 weeks, animals had ventricular pressures determined by placement of a 2F Millar Microtip Catheter Transducer (Millar Instruments Inc) into the left ventricle through a carotid insertion. Hemodynamic data were acquired at 500 Hz and stored electronically using a BioPac MP110 acquisition system and AcqKnowledge 4.7.3 software (BIOPAC Systems, Inc). The values of left ventricular end-diastolic pressure (LVEDP), systolic pressure, developed pressure, maximal velocity of rise or fall in pressure (dP/dt) and the time constant for isovolumic relaxation were determined using standard methods. At the end of 4 weeks, 2D and M-mode echocardiographic studies were performed using a Philips Sonos 5500 cardiovascular ultrasound imaging system (Philips Medical Systems) equipped with a 15 MHz linear transducer. Parasternal long-axis and short-axis views were obtained.
# (§7) MBG and ouabain-like compound (OLC) in plasma and urine was determined at 4 weeks after extraction with C-18 columns.
# (§8) At the time of sacrifice, left ventricles were quickly dissected out, frozen in liquid nitrogen, and stored at −80° C. until further analysis. Western blot analysis was performed using SDS-PAGE gels (Ready Gel, BioRad).
# (§9) Total protein carbonyl concentration of both the plasma and left ventricular homogenate was determined by ELISA using the Zentech PC Test kit (Northwest Life Science Specialties). Total plasma malondialdehyde was measured spectrophotometrically using the Bioxytech MDA-586 kit (Oxis Research).
# (§10) To measure sarcoplasmic reticulum calcium ATPase activity, which is predominantly SERCA2a activity in left ventricles of rat cardiac tissue, the method of Simonides and van Hardeveld (Simonides and van Hardeveld, Anal. Biochem. 191:321-331, 1990) was used with minor modifications.
# (§11) Hematocrit was measured from whole blood collected in heparinized capillary tubes and spun on a microhematocrit centrifuge (Fisher Scientific). Plasma creatinine was determined spectrophotometrically with a colorimetric end point assay (Teco Diagnostics). Plasma aldosterone levels were measured by ELISA (Cayman). Plasma parathyroid hormone was assayed using the Rat Intact PTH ELISA kit (Immutopics). All of the analyses were performed on blood collected upon sacrifice at 4 weeks.
# Sprague-Dawley rats = test: as above
# Protocol: as §2, §3, §4, §5, §6, §7, §8, §9, §10, §11
# [3] = 4 weeks after MBG infusion or immunization prior to partial nephrectomy
Compound,4G4 Percent cross-immunoreactivity (4G4 mAb) [%],4H2 Percent cross-immunoreactivity (4H2 mAb) [%],Percent cross-immunoreactivity (3E9 mAb) [%],also measured
C[C@]12CC[C@H](O)C[C@H]1CC[C@@H]1[C@@H]2CC[C@]2(C)[C@@H](c3ccc(=O)oc3)CC[C@]12O [Bufalin],0.08,0.07,0.25,
CC(=O)O[C@H]1[C@H]2O[C@]23[C@@H]2CC[C@@H]4C[C@@H](O)CC[C@]4(C)[C@H]2CC[C@]3(C)[C@H]1c1ccc(=O)oc1 [Cinobufagin],0.07,0.11,1.4,
CC(=O)O[C@H]1[C@H]2O[C@]23[C@@H]2CC[C@]4(O)C[C@@H](O)CC[C@]4(C)[C@H]2CC[C@]3(C)[C@H]1c1ccc(=O)oc1 [Cinobufotalin],43,58,4,
C[C@]12C[C@H](O)[C@H]3[C@@H](CCC4=CC(=O)CC[C@@]43C)[C@@H]1CC[C@@H]2C(=O)CO [Corticosterone],,,<0.01,
C[C@H]1O[C@@H](O[C@H]2[C@@H](O)C[C@H](O[C@H]3[C@@H](O)C[C@H](O[C@H]4CC[C@@]5(C)[C@H](CC[C@@H]6[C@@H]5CC[C@]5(C)[C@@H](C7=CC(=O)OC7)CC[C@]65O)C4)O[C@@H]3C)O[C@@H]2C)C[C@H](O)[C@@H]1O [Digitoxin],,,0.7,
C[C@H]1O[C@@H](O[C@H]2[C@@H](O)C[C@H](O[C@H]3[C@@H](O)C[C@H](O[C@H]4CC[C@@]5(C)[C@H](CC[C@@H]6[C@@H]5C[C@@H](O)[C@]5(C)[C@@H](C7=CC(=O)OC7)CC[C@]65O)C4)O[C@@H]3C)O[C@@H]2C)C[C@H](O)[C@@H]1O [Digoxin],0.003,0.03,1.8,
"C[C@]12CC[C@H](O)C[C@@]1(O)CC[C@@H]1[C@@H]2CC[C@]2(C)[C@@H](c3ccc(=O)oc3)CC3O[C@@]312 (stereo partly drawn) [MBG, 3β,5β-dihydroxy-14,15-epoxy bufadienolide]",100,100,100,"displacement of digoxin standards [1]: exactly similar displacement of digoxin standards; concentration at 4 weeks [2]: 0.546 ± 0.034 nM; Hematocrit (Sprague-Dawley rats; [3]): 44.6 ± 0.9%; Left ventricular carbonylated protein (Sprague-Dawley rats; [3]): 505 ± 22 pmol/mg protein; Plasma [OLC] (Sprague-Dawley rats; [3]): 493 ± 41 pmol/L; Plasma aldosterone (Sprague-Dawley rats; [3]): 322 ± 38 pg/mL; Plasma carbonylated protein (Sprague-Dawley rats; [3]): 378 ± 15 pmol/mg protein; Plasma creatinine (Sprague-Dawley rats; [3]): 0.52 ± 0.07 mg/dL; Plasma parathyroid hormone (Sprague-Dawley rats; [3]): 41 ± 9 pg/mL; Plasma total malondialdehyde (Sprague-Dawley rats; [3]): 474 ± 41 nm; Urinary MBG excretion (UMBGV) (Sprague-Dawley rats; [3]): 49.1 ± 3.5 pmol/24 h; Urinary OLC excretion (UOLCV) (Sprague-Dawley rats; [3]): 10.6 ± 0.9 pmol/24 h; left ventricular hemodynamics (dP/dt, LVEDP, time constant for isovolumic relaxation) (Sprague-Dawley rats; Millar catheter after 4 weeks): only the changes in LVEDP and time constant for isovolumic relaxation achieved statistical significance; heart weight / cardiac size (Sprague-Dawley rats; after 4 weeks): significant increases in heart weight; echocardiographic changes (wall thickness, chamber size, FS) (Sprague-Dawley rats; at 4 weeks, MBG versus sham, immunization versus partial nephrectomy): not associated with significant changes; systolic BP during the 4 weeks of observation (Sprague-Dawley rats; tail-cuff, conscious rats, MBG versus control, immunization versus partial nephrectomy): some increases in BP"
C[C@]12CC[C@H](OC(=O)CCCCCCC(=O)N[C@@H](CCCN=C(N)N)C(=O)O)C[C@@]1(O)CC[C@@H]1[C@@H]2CC[C@]2(C)[C@@H](c3ccc(=O)oc3)C[C@H]3O[C@]132 [Marinobufotoxin],44,55,4,
C[C@]12C[C@@H](O)[C@H]3[C@@H](CC[C@]4(O)C[C@@H](O)C[C@@H](O)[C@]34CO)[C@@]1(O)CC[C@@H]2C1=CC(=O)OC1 [Ouabagenin],,,<0.01,
C[C@@H]1O[C@@H](O[C@H]2C[C@@H](O)[C@]3(CO)[C@H]4[C@H](O)C[C@]5(C)[C@@H](C6=CC(=O)OC6)CC[C@]5(O)[C@@H]4CC[C@]3(O)C2)[C@H](O)[C@H](O)[C@H]1O [Ouabain],0.004,0.03,0.3,
C[C@]12C=CC(=O)C=C1CC[C@@H]1[C@@H]2C(=O)C[C@@]2(C)[C@H]1CC[C@]2(O)C(=O)CO [Prednisone],,,<0.01,
CC(=O)[C@H]1CC[C@H]2[C@@H]3CCC4=CC(=O)CC[C@]4(C)[C@H]3CC[C@]12C [Progesterone],,,0.3,
C[C@@H]1O[C@@H](O[C@@H]2C=C3CC[C@@H]4[C@H](CC[C@]5(C)[C@@H](c6ccc(=O)oc6)CC[C@]45O)[C@@]3(C)CC2)[C@H](O)[C@H](O)[C@H]1O [Proscillaridin],,,3,
C[C@]12CC[C@H](O)C[C@H]1CC[C@@H]1[C@@H]2CC[C@]2(C)[C@@H](c3ccc(=O)oc3)C[C@H]3O[C@]132 [Resibufagenin],0.6,0.2,,
CC(=O)S[C@@H]1CC2=CC(=O)CC[C@]2(C)[C@H]2CC[C@@]3(C)[C@@H](CC[C@@]34CCC(=O)O4)[C@H]12 [Spironolactone],,,0.22,
Telocinobufotoxin,,,7,

# From patent publication US8038997B2, “Anti-marinobufagenin antibodies and methods for their use” (priority 2005, dated 2011)
